Data: article PMC3278406 (PLoS ONE, 2012)
pKd: −log10 of the molar value. Entries after “also recorded” stand apart in the source; their conditions may differ.

Target: Stx2 toxoid (Escherichia phage 933W, UniProt P09386)
Type: binding, Escherichia coli O157:H7

Stx2 toxoid, sequence (P09386 whole entry, looked up): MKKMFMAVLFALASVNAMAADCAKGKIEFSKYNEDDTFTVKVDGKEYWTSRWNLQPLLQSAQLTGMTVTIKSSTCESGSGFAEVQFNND

## CC(C)CCC[C@@H](C)[C@H]1CC[C@H]2[C@@H]3CC=C4C[C@@H](O)CC[C@]4(C)[C@H]3CC[C@]12C [cholesterol]
  change of Stx2 binding to Gb3 in the absence of cholesterol: statistically significant decrease
  change of Stx2 binding to Gb3 in the presence of cholesterol alone: statistically significant increase

## CC(C)CCC[C@@H](C)[C@H]1CC[C@H]2[C@@H]3CC[C@H]4CCCC[C@]4(C)[C@H]3CC[C@]12C [5αCh, 5-α-Cholestane]
  Stx2 binding to Gb3 in the presence of sterol and PC: failed to support binding

## Asialo GM1 gangliosides [aGM1]
  Stx2 binding: failed to support binding

## CCCCCCCCCCCCC/C=C/[C@@H](O)[C@@H](N)CO[C@@H]1O[C@H](CO)[C@@H](O[C@@H]2O[C@H](CO)[C@H](O[C@H]3O[C@H](CO)[C@H](O)[C@H](O)[C@H]3O)[C@H](O)[C@H]2O)[C@H](O)[C@H]1O [Lyso-Gb3, Lyso-globotriaosylsphingosine]
  Stx2 binding: did not bind

## Glucosyl ceramide [Glc-Cer]
  Stx2 binding: failed to support binding

## Globotetraosyl ceramide [Gb4]
  Stx2 binding: increased binding
read-out: apparent Kd of Stx2
  pKd: 7.85

## Globotriaosyl ceramide, Ceramide trihexoside [Gb3]
  Stx2 binding: poor binding; also recorded: increased binding
  concentration of Stx2 needed to reach saturated binding: above 1 µM

## Lactosyl ceramide [Lac-Cer]
  Stx2 binding: failed to support binding

## Asialo GM2 gangliosides [aGM2]
  Stx2 binding: failed to support binding

## Galactosyl ceramide [Gal-Cer]
  Stx2 binding: failed to support binding
